Data taken from US20230089899A1, “METHOD FOR NON-TARGETED CHARACTERISATION OF A SOLUTION COMPRISING A PLURALITY OF SOLUTES” (COMMISSARIAT A L'ENERGIE ATOMIQUE ET AUX ENERGIES …, priority 2021, published 2023).

Key:
[1] = theoretical log D; cited from earlier work
physchem = assay: physchem
Description: The total quantity of moles of the solutes in the mixture (i.e. n0) is approximately 5×10^−4 moles. The pH of the mixture is approximately 7.4 (phosphate buffer: PBS).
A sequence of 3 rows of partitions—as illustrated in FIG. 2—is applied to the mixture by using hydrated n-octanol for the partition of the aqueous mixture and that of the aqueous phases issued from the partitions of rows 1 and 2 (i.e. the phases φ11, φ21 and φ23), and an aqueous solution comprising PBS buffer having a pH of 7 in distilled water for the partition of the organic phases issued from the partitions of rows 1 and 2 (i.e. the phases φ12, φ22 and φ24).
The concentration of each solute in the phases issued from the partitions of rows 1, 2 and 3 (i.e. the phases φ11 to φ38) is monitored by UV-visible spectroscopy but only with the goal of verifying the proper running of the experiment.

[2] = pH 7.4, experimental log D, log D of the solutes as verified experimentally, hydrated n-octanol/PBS buffer, UV-visible spectroscopy
[3] = pH 7.4, log D, in the experimental conditions used for this validation, n-octanol/aqueous phase, pH approximately 7.4 (PBS)

| SMILES | log D^THEOR [1] | logD (physchem; [2]) | logD (physchem; [3]) |
| --- | --- | --- | --- |
| CC(C)(c1ccc(O)cc1)c1ccc(O)cc1 [BPA, bisphenol A] | 3.32 |  |  |
| c1ccc2[nH]cnc2c1 [Benzimidazole, benzimidazole] |  | 1.33 | 1.34 |
| Cn1c(=O)c2[nH]cnc2n(C)c1=O [Theophylline, theophylline] |  | 0.01 | -0.02 |
| CC(C)=O [acetone] | ~−0.24 |  |  |
